Experimental data published in EP0237866A1, “Selective fungicidal use of asymmetric 2-pyridyl phosphoric acid esters” (priority 1986, dated 1987).

Columns and labels:
Cutinase = target: T1, Cutinase (Fusarium vanettenii, UniProt P00590); test: Cutinase inhibitor test; assay type: biochemical, Fusarium solani f.sp.pisi; settings: p-Nitrophenylbutyrat as substrate, 30 min incubation at 30°C, phosphate buffer 0,1 M pH 8 + 0,3% Triton X-100; read-out: I50
T1 construct: Das Enzym Cutinase wird aus Kulturfiltrat von Fusarium solani f.sp.pisi nach Standardmethoden gereinigt; endogenous in cells; host or cells: Culture filtrate of Fusarium solani f.sp. pisi (enzyme secreted by the fungus and purified)
Protocol: Das Enzym Cutinase wird aus Kulturfiltrat von Fusarium solani f.sp.pisi nach Standardmethoden gereinigt und photometrisch mit p-Nitrophenylbutyrat als Substrat getestet (P.E. Kolattukudy, K.E. Espelie, C.L. Soliday (1981), Meth. Enzymol. 71, 652).
Die Inhibitor-Wirkung wird einer beschriebenen Methode folgend bestimmt (W. Köller, C.R. Allan, P.E. Kolattukudy (1982), Phytopathoiopy 72, 1425): Eine geeignete Menge Enzym wird zusammen mit dem Wirkstoff in gewünschter Konzentration in 1 ml Phosphatpuffer (0,1 M; pH 8) + 0,3% (w/v) Triton X-100 bei 30°C inkubiert. Nach 30 Minuten Inkubation wird die enzymatische Restaktivität bestimmt. Anhand einer Dosis-Wirkungs-Beziehung wird der I(50)-Wert (= diejenige Wirkstoff-Konzentration, die zu einer Inhibierung von 50 % führt) ermittelt.

[1] = test system: Erysiphe graminis f.sp.hordei; test: Erysiphe test (barley) / protective; assay type: in vivo; settings: evaluated 7 days after inoculation
Text: Erysiphe-Test (Gerste) / protektiv
Lösungsmittel: 100 Gewichtsteile Dimethylformamid Emulgator: 0,25 Gewichtsteile Alkylarylpolyglykolether
(§1) Zur Herstellung einer zweckmäßigen Wirkstoffzubereitung vermischt man 1 Gewichtsteil Wirkstoff mit den angegebenen Mengen Lösungsmittel und Emulgator und verdünnt das Konzentrat mit Wasser auf die gewünschte Konzentration.
Zur Prüfung auf protektive Wirksamkeit besprüht man junge Pflanzen mit der Wirkstoffzubereitung taufeucht. Nach Antrocknen des Spritzbelages werden die Pflanzen mit Sporen von Erysiphe graminis f.sp.hordei bestäubt.
Die Pflanzen werden in einem Gewächshaus bei einer Temperatur von ca. 20°C und einer relativen Luftfeuchtigkeit von ca. 80 % aufgestellt, um die Entwicklung von Mehltaupusteln zu begünstigen.
7 Tage nach der Inokulation erfolgt die Auswertung.

Venturia inaequalis = test: Venturia test (apple) / protective; assay type: in vivo; settings: apple plants, protective spray, 5 ppm active compound, evaluated 12 days after inoculation
Text: Venturia-Test (Apfel) / protektiv
Lösungsmittel: 4,7 Gewichtsteile Aceton Emulgator: 0,3 Gewichtsteile Alkylarylpolyglykolether
as §1
Zur Prüfung auf protektive Wirksamkeit bespritzt man junge Pflanzen mit der Wirkstoffzubereitung bis zur Tropfnässe. Nach Antrocknen des Spritzbelages werden die Pflanzen mit einer wäßrigen Konidiensuspension des Apfelschorferregers (Venturia inaequalis) inokuliert und verbleiben dann 1 Tag bei 20°C und 100 X relativer Luftfeuchtigkeit in einer Inkubationskabine.
Die Pflanzen werden dann im Gewächshaus bei 20 °C und einer relativen Luftfeuchtigkeit von ca. 70 % aufgestellt.
12 Tage nach der Inokulation erfolgt die Auswertung.

[2] = protective spray, 0,0025 Gew.-% in the spray liquor

T1 sequence (P00590 32-230): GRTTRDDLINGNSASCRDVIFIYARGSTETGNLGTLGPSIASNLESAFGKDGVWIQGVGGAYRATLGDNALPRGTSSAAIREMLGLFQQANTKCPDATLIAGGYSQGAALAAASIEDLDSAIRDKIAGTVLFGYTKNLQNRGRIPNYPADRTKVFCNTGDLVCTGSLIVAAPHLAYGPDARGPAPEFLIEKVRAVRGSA

Structure (SMILES)	Befall in % bei einer Wirkstoffkonzentration von 5 ppm (Venturia inaequalis) [%]	Krankheits-befall in % der unbe-handelten Kontrolle [1, 2]	also measured
CCCOP(=O)(OC)Oc1nc(Cl)c(Cl)cc1Cl (centres unmarked) [Beispiel 12]	–	–	IC50 (Cutinase): 39 nM
CCOP(=O)(OCC)Oc1nc(Cl)c(Cl)cc1Cl [A, 0,0-Diethyl-0-(3,5,6-trichlor-2-pyridyl)-phosphorsäureester, reference compound]	74	–	Krankheits-befall in % der unbe-handelten Kontrolle ([1]; protective spray, 0,005 Gew.-% in the spray liquor): 58,7 % der unbe-handelten Kontrolle; IC50 (Cutinase): 190 nM
CCCCCCOP(=O)(OC)Oc1cccc(Cl)n1 (centres unmarked) [Beispiel 7]	–	37,5 % der unbe-handelten Kontrolle	–
CCCCOP(=O)(OC)Oc1ncc(Cl)cc1Cl (centres unmarked) [Beispiel 10]	–	12,5 % der unbe-handelten Kontrolle	–
CCCCOP(=O)(OC)Oc1cccc(Cl)n1 (centres unmarked) [Beispiel 8]	–	37,5 % der unbe-handelten Kontrolle	–
CCCCCCOP(=O)(OCC)Oc1nc(Cl)c(Cl)cc1Cl (centres unmarked) [Beispiel 2]	11	–	–
CCCCOP(=O)(OCC)Oc1nc(Cl)c(Cl)cc1Cl (centres unmarked) [Beispiel 1, O-n-Butyl-O-ethyl-O-(3,5,6-trichlor-2-pyridyl)-phosphorsiureester]	27	–	–
CCCCCCCCOP(=O)(OCC)Oc1nc(Cl)c(Cl)cc1Cl (centres unmarked) [Beispiel 3]	19	–	–
CCCCCCOP(=O)(OC)Oc1nc(Cl)c(Cl)cc1Cl (centres unmarked) [Beispiel 5]	3	–	–
CCCCCCOP(=O)(OC)Oc1ncc(Cl)cc1Cl (centres unmarked) [Beispiel 9]	–	25,0 % der unbe-handelten Kontrolle	–
CCCCOP(=O)(OC)Oc1nc(Cl)c(Cl)cc1Cl (centres unmarked) [Beispiel 4]	5	–	IC50 (Cutinase): 36 nM
